*1 amine or outer side, *2 acyl side, *3 side chain or, on linkers, in order; H or OH if unused. Where a SMILES comes first, the peptide text is derived from it. Bridges are numbered along the chain shown (N, C = ends). Roman numbers before positions name the chains, in order. [ ]: non-standard residue; d: D form. Actinocin(1to9) = Cc1c2oc3c(C)ccc(C(=O)[*:2])c3nc-2c(C(=O)[*:1])c(N)c1=O; NMeV = CN[C@H](C(=O)O)C(C)C; Sar = CNCC(=O)O
Key:
Cytochrome P450 2C19 = Cytochrome P450 2C19 (Homo sapiens, UniProt P33261); settings: bti-tn-5b1-4; further: in other assays of this panel Not Active means under 50% inhibition at 10 µM
[1] = DRUGMATRIX: Nicotinic Acetylcholine radioligand binding (ligand: [125I] Epibatidine); format: cell membranes, Membrane; settings: imr-32; Not Active = under 50% inhibition at 10 µM
[2] = biological target: T1, Muscarinic acetylcholine receptor M2 (Homo sapiens, UniProt P08172); format: cell membranes, CHO-K1, Membrane; settings: cho-k1; further: in other assays of this panel Not Active means under 50% inhibition at 10 µM
T1 sequence (P08172 whole entry): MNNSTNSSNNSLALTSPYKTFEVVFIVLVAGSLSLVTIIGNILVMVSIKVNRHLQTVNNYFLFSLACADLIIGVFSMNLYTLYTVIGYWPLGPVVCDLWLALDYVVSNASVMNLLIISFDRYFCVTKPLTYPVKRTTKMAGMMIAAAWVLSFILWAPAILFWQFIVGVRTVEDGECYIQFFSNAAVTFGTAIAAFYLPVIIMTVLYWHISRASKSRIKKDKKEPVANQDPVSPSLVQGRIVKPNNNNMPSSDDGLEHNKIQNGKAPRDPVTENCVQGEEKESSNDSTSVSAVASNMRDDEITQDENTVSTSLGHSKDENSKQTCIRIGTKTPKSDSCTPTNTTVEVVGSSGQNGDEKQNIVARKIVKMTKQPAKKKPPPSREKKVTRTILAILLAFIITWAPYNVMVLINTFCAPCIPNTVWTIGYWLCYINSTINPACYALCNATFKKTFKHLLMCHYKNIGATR

[3] = biological target: Beta-1 adrenergic receptor (Homo sapiens, UniProt P08588); test: DRUGMATRIX: Adrenergic beta1 radioligand binding (ligand: [125I] Cyanopindolol); format: cell membranes, CHO-K1, Membrane; settings: cho-k1; Not Active = under 50% inhibition at 10 µM
[4] = biological target: T2, C-C chemokine receptor type 4 (Homo sapiens, UniProt P51679); format: cell membranes, Chem-1, Membrane; settings: chem-1; further: in other assays of this panel Not Active means under 50% inhibition at 10 µM
T2 sequence (P51679 whole entry): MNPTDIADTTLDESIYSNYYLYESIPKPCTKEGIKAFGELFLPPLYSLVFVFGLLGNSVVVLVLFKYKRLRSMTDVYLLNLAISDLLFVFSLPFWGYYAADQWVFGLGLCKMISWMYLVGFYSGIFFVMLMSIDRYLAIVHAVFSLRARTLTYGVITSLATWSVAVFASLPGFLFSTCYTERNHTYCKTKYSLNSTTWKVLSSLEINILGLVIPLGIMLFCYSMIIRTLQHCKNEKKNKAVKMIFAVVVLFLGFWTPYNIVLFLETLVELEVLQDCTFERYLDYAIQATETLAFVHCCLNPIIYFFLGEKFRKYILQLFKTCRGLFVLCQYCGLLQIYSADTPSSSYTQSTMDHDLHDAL

Cytochrome P450 2D6 = Cytochrome P450 2D6 (Homo sapiens, UniProt P10635); settings: bti-tn-5b1-4; further: in other assays of this panel Not Active means under 50% inhibition at 10 µM
Cannabinoid receptor 1 = Cannabinoid receptor 1 (Homo sapiens, UniProt P21554); format: cell membranes, Membrane; settings: chem-1; further: in other assays of this panel Not Active means under 50% inhibition at 10 µM
Substance-P receptor = Substance-P receptor (Homo sapiens, UniProt P25103); format: cell membranes, CHO, Membrane; settings: cho; further: in other assays of this panel Not Active means under 50% inhibition at 10 µM
Substance-P receptor, sequence (P25103 whole entry): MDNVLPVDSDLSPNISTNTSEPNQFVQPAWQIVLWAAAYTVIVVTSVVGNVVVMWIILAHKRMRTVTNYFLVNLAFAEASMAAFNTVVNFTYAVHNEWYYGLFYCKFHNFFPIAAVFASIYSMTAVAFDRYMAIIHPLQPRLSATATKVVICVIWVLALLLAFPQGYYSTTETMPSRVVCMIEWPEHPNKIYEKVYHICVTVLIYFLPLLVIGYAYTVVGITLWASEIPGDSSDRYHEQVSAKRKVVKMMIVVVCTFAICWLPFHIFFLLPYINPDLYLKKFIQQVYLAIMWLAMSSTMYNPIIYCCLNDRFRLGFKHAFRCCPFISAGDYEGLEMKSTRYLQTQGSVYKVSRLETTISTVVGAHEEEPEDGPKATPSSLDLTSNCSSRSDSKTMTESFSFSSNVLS

Cytochrome P450 2C19, sequence (P33261 whole entry): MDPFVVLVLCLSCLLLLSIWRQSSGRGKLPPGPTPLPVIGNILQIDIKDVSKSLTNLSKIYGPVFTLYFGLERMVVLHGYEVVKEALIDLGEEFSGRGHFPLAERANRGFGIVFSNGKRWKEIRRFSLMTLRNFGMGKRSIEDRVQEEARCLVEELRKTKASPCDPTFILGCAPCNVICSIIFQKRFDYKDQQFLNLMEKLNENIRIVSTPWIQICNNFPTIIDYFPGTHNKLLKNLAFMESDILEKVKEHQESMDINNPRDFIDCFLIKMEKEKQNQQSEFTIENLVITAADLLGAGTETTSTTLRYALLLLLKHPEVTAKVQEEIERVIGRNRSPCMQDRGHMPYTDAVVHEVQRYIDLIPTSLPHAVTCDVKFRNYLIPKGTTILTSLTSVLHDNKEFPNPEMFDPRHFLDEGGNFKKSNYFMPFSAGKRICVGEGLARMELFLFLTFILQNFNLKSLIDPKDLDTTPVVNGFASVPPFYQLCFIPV
Cannabinoid receptor 1, sequence (P21554 whole entry): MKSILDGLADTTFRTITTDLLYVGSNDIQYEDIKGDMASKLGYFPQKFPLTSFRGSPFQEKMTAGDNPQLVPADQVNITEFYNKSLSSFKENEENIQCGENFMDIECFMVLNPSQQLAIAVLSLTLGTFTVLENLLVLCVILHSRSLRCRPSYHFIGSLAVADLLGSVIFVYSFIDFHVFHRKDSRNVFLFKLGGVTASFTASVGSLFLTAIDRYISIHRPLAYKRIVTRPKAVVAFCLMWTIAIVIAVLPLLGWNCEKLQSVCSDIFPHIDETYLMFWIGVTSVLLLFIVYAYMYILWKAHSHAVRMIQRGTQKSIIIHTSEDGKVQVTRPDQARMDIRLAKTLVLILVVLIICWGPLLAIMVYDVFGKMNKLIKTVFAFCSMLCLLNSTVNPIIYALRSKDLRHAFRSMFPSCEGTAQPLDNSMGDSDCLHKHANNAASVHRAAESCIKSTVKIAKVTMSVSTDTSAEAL
Beta-1 adrenergic receptor, sequence (P08588 whole entry): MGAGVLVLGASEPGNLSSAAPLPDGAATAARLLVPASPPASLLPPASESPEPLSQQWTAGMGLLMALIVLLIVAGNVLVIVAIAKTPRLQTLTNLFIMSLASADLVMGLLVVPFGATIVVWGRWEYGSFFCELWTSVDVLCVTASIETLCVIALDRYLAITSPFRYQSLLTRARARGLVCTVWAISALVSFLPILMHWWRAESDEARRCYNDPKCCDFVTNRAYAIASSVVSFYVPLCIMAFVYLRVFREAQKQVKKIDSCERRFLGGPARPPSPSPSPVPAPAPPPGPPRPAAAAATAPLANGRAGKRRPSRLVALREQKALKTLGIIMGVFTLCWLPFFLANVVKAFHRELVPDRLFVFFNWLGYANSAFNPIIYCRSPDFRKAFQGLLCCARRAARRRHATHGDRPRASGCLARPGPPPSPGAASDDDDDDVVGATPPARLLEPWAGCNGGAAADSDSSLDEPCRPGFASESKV
Cytochrome P450 2D6, sequence (P10635 whole entry): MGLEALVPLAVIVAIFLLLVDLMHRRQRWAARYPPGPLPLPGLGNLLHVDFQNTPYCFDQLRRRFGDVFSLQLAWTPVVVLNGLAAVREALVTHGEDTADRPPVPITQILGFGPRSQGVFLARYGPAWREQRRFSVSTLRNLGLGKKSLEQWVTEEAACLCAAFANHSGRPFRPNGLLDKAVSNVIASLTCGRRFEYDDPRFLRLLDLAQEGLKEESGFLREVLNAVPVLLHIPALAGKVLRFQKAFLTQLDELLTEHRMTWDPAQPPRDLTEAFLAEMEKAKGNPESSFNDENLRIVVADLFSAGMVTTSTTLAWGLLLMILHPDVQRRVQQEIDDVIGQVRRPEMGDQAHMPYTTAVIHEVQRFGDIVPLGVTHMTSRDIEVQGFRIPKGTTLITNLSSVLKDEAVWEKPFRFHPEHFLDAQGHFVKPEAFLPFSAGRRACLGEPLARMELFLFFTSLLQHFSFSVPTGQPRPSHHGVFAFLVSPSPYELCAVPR

CADMIUM ACETATE
Not Active: IC50 (Cytochrome P450 2C19) | Ki (Cytochrome P450 2C19) | IC50 [1] | Ki [1] | IC50 [2] | Ki [2] | IC50 [3] | Ki [3] | IC50 [4] | Ki [4] | IC50 (Cytochrome P450 2D6) | Ki (Cytochrome P450 2D6) | IC50 (Cannabinoid receptor 1) | Ki (Cannabinoid receptor 1) | IC50 (Substance-P receptor) | Ki (Substance-P receptor)

C[C@H]1O[C@@H](O[C@H]2[C@@H](O)C[C@H](O[C@H]3[C@@H](O)C[C@H](O[C@H]4CC[C@@]5(C)[C@H](CC[C@@H]6[C@@H]5C[C@@H](O)[C@]5(C)[C@@H](C7=CC(=O)OC7)CC[C@]65O)C4)O[C@@H]3C)O[C@@H]2C)C[C@H](O)[C@@H]1O [DIGOXIN]
Not Active: IC50 (Cytochrome P450 2C19) | Ki (Cytochrome P450 2C19) | IC50 [1] | Ki [1] | IC50 [2] | IC50 [3] | IC50 [4] | IC50 (Cytochrome P450 2D6) | Ki (Cytochrome P450 2D6) | IC50 (Cannabinoid receptor 1) | IC50 (Substance-P receptor)

Cc1c2oc3c(C)ccc(C(=O)N[C@@H]4C(=O)N[C@H](C(C)C)C(=O)N5CCC[C@H]5C(=O)N(C)CC(=O)N(C)[C@@H](C(C)C)C(=O)O[C@@H]4C)c3nc-2c(C(=O)N[C@@H]2C(=O)N[C@H](C(C)C)C(=O)N3CCC[C@H]3C(=O)N(C)CC(=O)N(C)[C@@H](C(C)C)C(=O)O[C@@H]2C)c(N)c1=O [DACTINOMYCIN] (I: T[dV]P[Sar][NMeV] / II: T[dV]P[Sar][NMeV]; ester I:1-I:C, II:1-II:C; linker I:N-II:N via Actinocin(1to9))
Not Active: IC50 (Cytochrome P450 2C19) | Ki (Cytochrome P450 2C19) | IC50 [1] | Ki [1] | IC50 [2] | IC50 [3] | IC50 [4] | IC50 (Cytochrome P450 2D6) | Ki (Cytochrome P450 2D6) | IC50 (Cannabinoid receptor 1) | IC50 (Substance-P receptor)

C=C(C)C1(O)OC(=O)C=C1OC (stereo not given) [PENICILLIC ACID]
Not Active: IC50 (Cytochrome P450 2C19) | Ki (Cytochrome P450 2C19) | IC50 [1] | Ki [1] | IC50 [2] | IC50 [3] | IC50 [4] | IC50 (Cytochrome P450 2D6) | Ki (Cytochrome P450 2D6) | IC50 (Cannabinoid receptor 1) | IC50 (Substance-P receptor)

NC(=O)N1c2ccccc2CCc2ccccc21
Not Active: IC50 (Cytochrome P450 2C19) | Ki (Cytochrome P450 2C19) | IC50 [1] | Ki [1] | IC50 [2] | IC50 [3] | IC50 [4] | IC50 (Cytochrome P450 2D6) | Ki (Cytochrome P450 2D6) | IC50 (Cannabinoid receptor 1) | IC50 (Substance-P receptor)

Cc1onc(-c2ccccc2Cl)c1C(=O)N[C@@H]1C(=O)N2[C@@H]1SC(C)(C)[C@@H]2C(=O)O [CLOXACILLIN]
Not Active: IC50 (Cytochrome P450 2C19) | Ki (Cytochrome P450 2C19) | IC50 [1] | Ki [1] | IC50 [2] | IC50 [3] | IC50 [4] | IC50 (Cytochrome P450 2D6) | Ki (Cytochrome P450 2D6) | IC50 (Cannabinoid receptor 1) | IC50 (Substance-P receptor)

COc1ccc(C[C@H]2NC[C@H](O)[C@H]2OC(C)=O)cc1 [ANISOMYCIN]
Not Active: IC50 (Cytochrome P450 2C19) | Ki (Cytochrome P450 2C19) | IC50 [1] | Ki [1] | IC50 [2] | Ki [2] | IC50 [3] | Ki [3] | IC50 [4] | Ki [4] | IC50 (Cytochrome P450 2D6) | Ki (Cytochrome P450 2D6) | IC50 (Cannabinoid receptor 1) | Ki (Cannabinoid receptor 1) | IC50 (Substance-P receptor) | Ki (Substance-P receptor)

CCC1(c2ccc(N)cc2)CCC(=O)NC1=O (stereo not given) [AMINOGLUTETHIMIDE]
Not Active: IC50 (Cytochrome P450 2C19) | Ki (Cytochrome P450 2C19) | IC50 [1] | Ki [1] | IC50 [2] | IC50 [3] | IC50 [4] | IC50 (Cytochrome P450 2D6) | Ki (Cytochrome P450 2D6) | IC50 (Cannabinoid receptor 1) | IC50 (Substance-P receptor)

Cc1ccc(/N=C/N(C)/C=N/c2ccc(C)cc2C)c(C)c1 [AMITRAZ]
Not Active: IC50 (Cytochrome P450 2C19) | Ki (Cytochrome P450 2C19) | IC50 [1] | Ki [1] | IC50 [2] | IC50 [3] | IC50 [4] | IC50 (Cytochrome P450 2D6) | Ki (Cytochrome P450 2D6) | IC50 (Cannabinoid receptor 1) | IC50 (Substance-P receptor)

CNNCc1ccc(C(=O)NC(C)C)cc1 [PROCARBAZINE]
Not Active: IC50 (Cytochrome P450 2C19) | Ki (Cytochrome P450 2C19) | IC50 [1] | Ki [1] | IC50 [2] | IC50 [3] | IC50 [4] | IC50 (Cytochrome P450 2D6) | Ki (Cytochrome P450 2D6) | IC50 (Cannabinoid receptor 1) | IC50 (Substance-P receptor)
